{"source": "patent US11724999B2", "about": "“Inhibitors of RAS-effector protein interactions” (Oxford University Innovation Limited, priority 2018, dated 2023)"}
{"target": "T1, GST-human KRas166 (G12V) GPPNHP (Homo sapiens, UniProt P01116, G12V)", "T1 construct": "made in house; host or cells: E. coli C41(DE3)", "assay": "KRas small-molecule screening by SPR (BIACORE T200)", "assay_type": "binding", "settings": "compound at final concentration of 100 uM; immobilised GST-KRAS166 (G12V) GPPNHP, GST reference channel", "method": "For SPR assays pGEX-KRAS(G12V) plasmid was transformed into E. coli C41(DE3). Bacterial cells were cultured at 37° C. to an OD600 of 0.6 and induced with IPTG (final 0.1 mM) at 18° C. overnight. The GST fusion proteins were extracted from bacteria pellets after cell disruption in 140 mM NaCl, 2.7 mM KCl, […], 1.8 mM KH2PO4, 1 mM EDTA, 2 mM MgCl2 pH 7.4 and purified by glutathione-sepharose column chromatography (GE Healthcare), eluting with 50 mM Tris-HCl pH8.0, 10 mM reduced glutathione, 1 mM DTT, 2 mM MgC2. The eluted proteins were dialysed against 50 mM Tris-HCl pH8.0, 1 mM DTT, 2 mM MgCl2 and concentrated to 10 mg/ml using a Biomax-30 […]-15 centrifugal filter device (Millipore). Purified KRAS protein was loaded with GPPNHP as described elsewhere (Pacold et al., 2000). Loaded protein was then purified by gel filtration on a HiLoad Superdex-75 HR column (GE Healthcare) in 1×PBS pH7.4, 5 mM MgCl2 and concentrated for storage.\nTo a previously immobilized CM5 chip (GE Healthcare BR-1005-30) with anti GST antibody via amine coupling method, GST in channel 1 and GST-human KRas166 (G12V) GPPNHP in channel 2 were immobilised. GST was immobilised between 2,000 and 5,000 Response units. KRAS166 (G12V) was immobilized between 10,000 to 15,000 Response Units.\nIn a 96 well plate, compounds were diluted in […], 5 mM MgCl2 and 5% DMSO Buffer to a final concentration of 100 uM. DCAI was used as positive control. Experiment also included a solvent correction curve for 5% DMSO. Screening and evaluation of the protein immobilization and the compounds screening was done accordingly to the BIACORE T200 control and evaluation software.\nProtein immobilisation: 10,000 RU; average fragment 300 Da in size. Rmax=(MWA/MWL)×RL×SM MWA is the molecular weight of the analyte in Da MWL is the molecular weight of the ligand in Da RL is the immobilization level in RU SM is the molar stoichiometry (assume 1:1) Rmax=300/47,500×10,000×1 Rmax=63 RU. Cell Viability Assay protocols", "units": {"SPR Response Units": "Response Units"}}
{"smiles": "O=C(NCc1ccc(CN2CCOCC2)cc1)C1COc2ccc(OCc3ccccc3)cc2O1", "note": "(centres unmarked) [Example 65, 7-Benzyloxy-2,3-dihydro-benzo[1,4]dioxine-2-carboxylic acid 4-morpholin-4-ylmethyl-benzylamide]", "SPR Response Units": 46}
{"smiles": "CNC(=O)C(NC[C@@H]1COc2ccc(OCc3ccccc3)cc2O1)c1ccccc1", "note": "(stereo partly drawn) [Example 49, 2-[((R)-7-Benzyloxy-2,3-dihydro-benzo[1,4]dioxin-2-ylmethyl)-amino]-N-methyl-2-phenyl-acetamide]", "SPR Response Units": 67}
{"smiles": "O=C(Cc1cccnc1)NC[C@@H]1COc2ccc(OCc3ccccc3)cc2O1", "note": "[Example 11, N-((R)-7-Benzyloxy-2,3-dihydro-benzo[1,4]dioxin-2-ylmethyl)-2-pyridin-3-yl-acetamide]", "SPR Response Units": 68}
{"smiles": "O=C1CN(c2ccccn2)C(=O)N1C[C@@H]1COc2ccc(OCc3ccccc3)cc2O1.O=CO", "note": "[Example 78, 3-((R)-7-Benzyloxy-2,3-dihydro-benzo[1,4]dioxin-2-ylmethyl)-1-pyridin-2-yl-imidazolidine-2,4-dione]", "SPR Response Units": 28}
{"smiles": "O=C(NC[C@@H]1COc2ccc(OCc3ccccc3)cc2O1)C1CCOCC1", "note": "[Example 5, Tetrahydro-pyran-4-carboxylic acid ((R)-7-benzyloxy-2,3-dihydro-benzo[1,4]dioxin-2-ylmethyl)-amide]", "SPR Response Units": 25}
{"smiles": "CC(=O)N1CCC(NC[C@@H]2COc3ccc(OCc4ccccc4)cc3O2)CC1", "note": "[Example 34, 1-{4-[((R)-7-Benzyloxy-2,3-dihydro-benzo[1,4]dioxin-2-ylmethyl)-amino]-piperidin-1-yl}-ethanone]", "SPR Response Units": 23}
{"smiles": "O=C(NCc1cccc(CN2CCOCC2)c1)C1COc2ccc(OCc3ccccc3)cc2O1", "note": "(centres unmarked) [Example 66, 7-Benzyloxy-2,3-dihydro-benzo[1,4]dioxine-2-carboxylic acid 3-morpholin-4-ylmethyl-benzylamide]", "SPR Response Units": 53}
{"smiles": "CN1CCC(COc2ccc3c(c2)O[C@H](CNC(=O)c2ncco2)CO3)CC1", "note": "[Example 21, Oxazole-2-carboxylic acid [(R)-7-(1-methyl-piperidin-4-ylmethoxy)-2,3-dihydro-benzo[1,4]dioxin-2-ylmethyl]-amide]", "SPR Response Units": 9}
{"smiles": "O=C(NCc1ccnc(F)c1)C1COc2ccc(OCc3ccccc3)cc2O1", "note": "(centres unmarked) [Example 72, 7-Benzyloxy-2,3-dihydro-benzo[1,4]dioxine-2-carboxylic acid (2-fluoro-pyridin-4-ylmethyl)-amide]", "SPR Response Units": 12}
{"smiles": "O=C(NCc1cccnc1)C1COc2ccc(OCc3ccccc3)cc2O1", "note": "(centres unmarked) [Example 67, 7-Benzyloxy-2,3-dihydro-benzo[1,4]dioxine-2-carboxylic acid (pyridin-3-ylmethyl)-amide]", "SPR Response Units": 49}
{"smiles": "O=C(C1COc2ccc(OCc3ccccc3)cc2O1)N1CCN(Cc2ccncc2)CC1", "note": "(centres unmarked) [Example 63, (7-Benzyloxy-2,3-dihydro-benzo[1,4]dioxin-2-yl)-(4-pyridin-4-ylmethyl-piperazin-1-yl)-methanone]", "SPR Response Units": 79}
{"smiles": "c1ccc(COc2ccc3c(c2)O[C@H](CNC2CCc4ccccc42)CO3)cc1", "note": "(stereo partly drawn) [Example 48, ((R)-7-Benzyloxy-2,3-dihydro-benzo[1,4]dioxin-2-ylmethyl)-indan-1-yl-amine]", "SPR Response Units": 24}
{"smiles": "O=C(NCc1ccncc1)C1COc2ccc(OCc3ccccc3)cc2O1", "note": "(centres unmarked) [Example 68, 7-Benzyloxy-2,3-dihydro-benzo[1,4]dioxine-2-carboxylic acid (pyridin-4-ylmethyl)-amide]", "SPR Response Units": 57}
{"smiles": "c1ccc(COc2ccc3c(c2)O[C@H](CNCC2COCCN2)CO3)cc1", "note": "(stereo partly drawn) [Example 57, ((R)-7-Benzyloxy-2,3-dihydro-benzo[1,4]dioxin-2-ylmethyl)-morpholin-3-ylmethyl-amine]", "SPR Response Units": 29}
{"smiles": "CN1CCN(C(=O)NC[C@@H]2COc3ccc(OCc4ccccc4)cc3O2)CC1", "note": "[Example 82, 4-methyl-piperazine-1-carboxylic acid ((R)-7-benzyloxy-2,3-dihydro-benzo[1,4]dioxin-2-ylmethyl)-amide]", "SPR Response Units": 63}
{"smiles": "O=C(NCC1COCCN1)C1COc2ccc(OCc3ccccc3)cc2O1", "note": "(centres unmarked) [Example 76, 7-Benzyloxy-2,3-dihydro-benzo[1,4]dioxine-2-carboxylic acid (morpholin-3-ylmethyl)-amide]", "SPR Response Units": 48}
{"smiles": "O=C1CC(CNC(=O)C2COc3ccc(OCc4ccccc4)cc3O2)CCN1", "note": "(centres unmarked) [Example 71, 7-Benzyloxy-2,3-dihydro-benzo[1,4]dioxine-2-carboxylic acid (2-oxo-piperidin-4-ylmethyl)-amide]", "SPR Response Units": 7}
{"smiles": "O=C(C1COc2ccc(OCc3ccccc3)cc2O1)N1CCN(CC2CCOCC2)CC1", "note": "(centres unmarked) [Example 64, (7-Benzyloxy-2,3-dihydro-benzo[1,4]dioxin-2-yl)-[4-(tetrahydro-pyran-4-ylmethyl)-piperazin-1-yl]-methanone]", "SPR Response Units": 36}
{"smiles": "CN1CCN(Cc2ccc(C(=O)NC[C@@H]3COc4ccc(OCc5cncc(Cl)c5)cc4O3)o2)CC1", "note": "[Example 25, 5-(4-Methyl-piperazin-1-ylmethyl)-furan-2-carboxylic acid [(R)-7-(5-chloro-pyridin-3-ylmethoxy)-2,3-dihydro-benzo[1,4]dioxin-2-ylmethyl]-amide]", "SPR Response Units": 45}
{"smiles": "O=C(NCc1cn[nH]c1)C1COc2ccc(OCc3ccccc3)cc2O1", "note": "(centres unmarked) [Example 73, 7-Benzyloxy-2,3-dihydro-benzo[1,4]dioxine-2-carboxylic acid (1H-pyrazol-4-ylmethyl)-amide]", "SPR Response Units": 33}
{"smiles": "O=C(CC1CCNCC1)NC[C@@H]1COc2ccc(OCc3ccccc3)cc2O1", "note": "[Example 16, N-((R)-7-Benzyloxy-2,3-dihydro-benzo[1,4]dioxin-2-ylmethyl)-2-piperidin-4-yl-acetamide]", "SPR Response Units": 25}
{"smiles": "Cc1n[nH]c(C)c1CC(=O)NC[C@@H]1COc2ccc(OCc3ccccc3)cc2O1", "note": "[Example 12, N-((R)-7-Benzyloxy-2,3-dihydro-benzo[1,4]dioxin-2-ylmethyl)-2-(3,5-dimethyl-1H-pyrazol-4-yl)-acetamide]", "SPR Response Units": 53}
{"smiles": "N[C@H]1CC[C@@H](NC(=O)C2COc3ccc(OCc4ccccc4)cc3O2)CC1", "note": "(some centres unmarked) [Example 75, 7-Benzyloxy-2,3-dihydro-benzo[1,4]dioxine-2-carboxylic acid (4-amino-cyclohexyl)-amide]", "SPR Response Units": 51}
{"smiles": "O=C(NC[C@@H]1COc2ccc(OCc3ccccc3)cc2O1)C1CCN(Cc2ccco2)CC1", "note": "[Example 15, 1-Furan-2-ylmethyl-piperidine-4-carboxylic acid ((R)-7-benzyloxy-2,3-dihydro-benzo[1,4]dioxin-2-ylmethyl)-amide]", "SPR Response Units": 33}
{"smiles": "O=C(NC[C@@H]1COc2ccc(OCc3cn[nH]c3)cc2O1)c1ncco1", "note": "[Example 20, Oxazole-2-carboxylic acid [(R)-7-(1H-pyrazol-4-ylmethoxy)-2,3-dihydro-benzo[1,4]dioxin-2-ylmethyl]-amide]", "SPR Response Units": 40}
{"smiles": "CN1CCC(NC(=O)NC[C@@H]2COc3ccc(OCc4ccccc4)cc3O2)CC1", "note": "[Example 80, 1-(7-benzyloxy-2,3-dihydro-benzo[1,4]dioxin-2-ylmethyl)-3-(1-methyl-piperidin-4-yl)-urea]", "SPR Response Units": 93}
{"smiles": "NC[C@@H]1COc2ccc(OCc3ccccc3)cc2O1", "note": "[Example 86, C—((R)-7-Benzyloxy-2,3-dihydro-benzo[1,4]dioxin-2-yl)-methylamine]", "SPR Response Units": 28}
{"smiles": "CN1CCN(Cc2ccc(C(=O)NC[C@@H]3COc4ccc(OCc5ccc(Cl)cn5)cc4O3)o2)CC1", "note": "[Example 26, 5-(4-Methyl-piperazin-1-ylmethyl)-furan-2-carboxylic acid [(R)-7-(5-chloro-pyridin-2-ylmethoxy)-2,3-dihydro-benzo[1,4]dioxin-2-ylmethyl]-amide]", "SPR Response Units": 48}
{"smiles": "CN1CCC(N(C)C(=O)NC[C@@H]2COc3ccc(OCc4ccccc4)cc3O2)CC1", "note": "[Example 81, 3-(7-Benzyloxy-2,3-dihydro-benzo[1,4]dioxin-2-ylmethyl)-1-methyl-1-(1-methyl-piperidin-4-yl)-urea]", "SPR Response Units": 75}
